Article PMC10797628
Numbering of substitutions follows the chain as printed. Read-outs that look alike come from different tables or passages of the source.

Assays:
S5.42A 5-HT1D receptor [1] = biological target: T1, S5.42A 5-HT1D receptor (Homo sapiens, UniProt P28221, S201A); experiment: cAMP accumulation in HEK293T cells, S5.42A 5-HT1D; format: cell-based; set-up: host or cells: HEK293T; settings: point-mutated receptor, 3 independent experiments, read-out: pEC50 5-HT1D Receptor S5.42A (converted)
T1 sequence (P28221 whole entry S201A): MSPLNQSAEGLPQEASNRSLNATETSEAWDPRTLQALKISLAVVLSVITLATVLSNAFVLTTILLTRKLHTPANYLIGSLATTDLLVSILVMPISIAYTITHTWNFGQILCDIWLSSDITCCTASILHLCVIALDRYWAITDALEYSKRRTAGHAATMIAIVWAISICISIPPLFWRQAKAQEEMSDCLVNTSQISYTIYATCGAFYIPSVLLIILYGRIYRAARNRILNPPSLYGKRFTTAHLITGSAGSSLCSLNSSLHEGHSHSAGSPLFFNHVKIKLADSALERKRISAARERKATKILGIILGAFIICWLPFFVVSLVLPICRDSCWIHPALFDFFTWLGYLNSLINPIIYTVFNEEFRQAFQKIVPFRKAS
Protocol: (§1) Briefly, cells transfected with the desired receptor construct and compounds were incubated in the dark for 90 min at 37 °C. After incubation, cAMP detection reagents were added, and TR-FRET was used to quantify the cAMP produced.
(§2) The functional activity of compounds was determined by stimulating cells expressing the desired receptor with FSK and test compound in parallel with 12 known concentrations of cAMP. The known concentrations of cAMP were used to create a standard curve for each experiment that was used to interpolate the unknown values of cAMP in wells with test compounds. […] The EC50 and EMAX values were determined using the “dose response – log[agonist] vs response (three parameter)” nonlinear regression model in Prism and transformed to pEC50 values, reported as mean ± SD.
(§3) Summary of functional assay conditions at various 5-HT1 receptor point mutation constructs.

Y5.38F 5-HT1B receptor = biological target: T2, Y5.38F 5-HT1B receptor (Homo sapiens, UniProt P28222, Y208F); experiment: Radioligand binding, Y5.38F 5-HT1B; settings: read-out: pKi 5-HT1B Receptor Y5.38F (converted)
T2 construct: host or cells: HEK293T
T2 sequence (P28222 whole entry Y208F): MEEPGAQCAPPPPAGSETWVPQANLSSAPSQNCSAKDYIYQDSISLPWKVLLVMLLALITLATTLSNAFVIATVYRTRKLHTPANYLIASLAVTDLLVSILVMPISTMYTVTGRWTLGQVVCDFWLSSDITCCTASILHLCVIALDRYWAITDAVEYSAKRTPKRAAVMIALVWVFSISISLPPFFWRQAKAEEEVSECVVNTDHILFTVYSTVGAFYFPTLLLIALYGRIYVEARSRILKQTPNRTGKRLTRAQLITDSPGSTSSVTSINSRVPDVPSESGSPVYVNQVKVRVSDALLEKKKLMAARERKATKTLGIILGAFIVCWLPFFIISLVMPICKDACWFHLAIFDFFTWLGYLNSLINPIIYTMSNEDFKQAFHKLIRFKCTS

S5.42A 5-HT1D receptor [2] = biological target: T1, S5.42A 5-HT1D receptor; experiment: Radioligand binding, S5.42A 5-HT1D
Protocol: (§4) 48 hours after transfection with the desired receptor construct, cells were isolated for saturation and competition binding assays as previously described.[47],[48],[57] Saturation and competition radioligand binding assays were conducted in an assay buffer consisting of 50 mM Tris HCl, 10 mM MgCl2, and 0.1 mM EDTA in filtered deionized water. […] Briefly, 5–10 μg of the receptor protein, as determined by a Thermo Fisher Pierce BCA protein assay kit, was incubated with 8 concentrations of radioligand in triplicate to determine total binding. […] Nonspecific binding was determined as above for saturation assays.
(§5) For radioligand binding data, nonspecific binding was subtracted from the total binding to get specific binding. Saturation binding data was fit to the “binding saturation-specific binding with hill slope” model. Competition binding data were fit to the “binding competition-one-site fit Ki” non-linear regression model and transformed to pKi values, reported as mean ± SD.
(§6) is 50 mM Tris HCl, 10 mM MgCl2 and 0.1 mM EDTA in filtered deionized water.

Y5.38A 5-HT1D receptor = Y5.38A 5-HT1D receptor (Homo sapiens, UniProt P28221, Y197A); experiment: Radioligand binding, Y5.38A 5-HT1D
Sequence of Y5.38A 5-HT1D receptor (P28221 whole entry Y197A): as the sequence (P28221 whole entry S201A) above, with Y197A, A201S counted along it
Protocol: as §4, §5, §6

S5.42A 5-HT1B receptor = S5.42A 5-HT1B receptor (Homo sapiens, UniProt P28222, S212A); experiment: Radioligand binding, S5.42A 5-HT1B
Sequence of S5.42A 5-HT1B receptor (P28222 whole entry S212A): as the sequence (P28222 whole entry Y208F) above, with F208Y, S212A counted along it
Protocol: as §4, §5, §6

V45.52I 5-HT1D receptor = V45.52I 5-HT1D receptor (Homo sapiens, UniProt P28221, V190I); experiment: cAMP accumulation in HEK293T cells, V45.52I 5-HT1D; format: cell-based; set-up: host or cells: HEK293T; settings: point-mutated receptor, 3 independent experiments, read-out: pEC50 5-HT1D Receptor V45.52I (converted)
Sequence of V45.52I 5-HT1D receptor (P28221 whole entry V190I): as the sequence (P28221 whole entry S201A) above, with V190I, A201S counted along it
Protocol: as §1, §2
Cell Type Receptor Cell Density [Forskolin] Incubation time
as §3

human 5-HT1D receptor = biological target: T3, human 5-HT1D receptor (Homo sapiens, UniProt P28221); experiment: cAMP accumulation (LANCE Ultra TR-FRET) in HEK293T cells, WT 5-HT1D; format: cell-based; settings: for Emax: HEK-293T; for higher functional potency at 5-HT1D over 5-HT1A receptors: cAMP potency ratio; for EC50: cAMP accumulation, HEKt cells, mean ± SD
T3 construct: host or cells: HEK293T
T3 sequence (P28221 whole entry): as the sequence (P28221 whole entry S201A) above, with A201S counted along it
Protocol: as §1, §2, §3

Y5.38F 5-HT1D receptor = Y5.38F 5-HT1D receptor (Homo sapiens, UniProt P28221, Y197F); experiment: Radioligand binding, Y5.38F 5-HT1D
Sequence of Y5.38F 5-HT1D receptor (P28221 whole entry Y197F): as the sequence (P28221 whole entry S201A) above, with Y197F, A201S counted along it
Protocol: as §4, §5, §6

Y5.38A 5-HT1A receptor = biological target: T4, Y5.38A 5-HT1A receptor (Homo sapiens, UniProt P08908, Y195A); experiment: Radioligand binding, Y5.38A 5-HT1A
T4 sequence (P08908 1-422 Y195A): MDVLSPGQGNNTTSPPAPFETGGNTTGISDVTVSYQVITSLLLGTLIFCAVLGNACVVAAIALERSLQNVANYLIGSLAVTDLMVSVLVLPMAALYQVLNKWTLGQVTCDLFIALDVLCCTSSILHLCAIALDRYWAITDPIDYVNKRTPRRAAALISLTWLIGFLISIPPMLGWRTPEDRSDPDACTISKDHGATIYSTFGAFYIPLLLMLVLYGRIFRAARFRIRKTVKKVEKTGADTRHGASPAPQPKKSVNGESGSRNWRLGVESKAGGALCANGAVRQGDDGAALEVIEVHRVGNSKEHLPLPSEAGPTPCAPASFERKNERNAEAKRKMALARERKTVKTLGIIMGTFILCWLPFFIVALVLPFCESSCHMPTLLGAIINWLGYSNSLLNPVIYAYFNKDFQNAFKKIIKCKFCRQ
Protocol: as §4, §5, §6

V3.33I 5-HT1A receptor = biological target: T5, V3.33I 5-HT1A receptor (Homo sapiens, UniProt P08908, V117I); experiment: cAMP accumulation in HEK293T cells, V3.33I 5-HT1A; format: cell-based; set-up: mutated in house (Quikchange II) HTR01A0000; host or cells: HEK293T; settings: point-mutated receptor, 3 independent experiments, read-out: pEC50 5-HT1A Receptor V3.33I (converted)
T5 sequence (P08908 1-422 V117I): T4 sequence (P08908 1-422 Y195A) with V117I, A195Y
Protocol: as §1, §2, §3

N7.39T 5-HT1A receptor = biological target: T6, N7.39T 5-HT1A receptor (Homo sapiens, UniProt P08908, N386T); experiment: cAMP accumulation in HEK293T cells, N7.39T 5-HT1A; format: cell-based; set-up: mutated in house (Quikchange II) HTR01A0000; host or cells: HEK293T; settings: point-mutated receptor, 3 independent experiments, read-out: pEC50 5-HT1A Receptor N7.39T (converted)
T6 sequence (P08908 1-422 N386T): T4 sequence (P08908 1-422 Y195A) with A195Y, N386T
Protocol: as §1, §2, §3

[3] = read-out: 5-HT1D EMAX (%), WT receptor, normalized to basal (0%) and 10 μM 5-CT (100%)

| SMILES | EC50 (S5.42A 5-HT1D receptor [1]) | Ki (Y5.38F 5-HT1B receptor) | Ki (S5.42A 5-HT1D receptor [2]) | Ki (Y5.38A 5-HT1D receptor) | Ki (S5.42A 5-HT1B receptor) | EC50 (V45.52I 5-HT1D receptor) | Emax (human 5-HT1D receptor; [3]) | higher functional potency at 5-HT1D over 5-HT1A receptors (human 5-HT1D receptor) | Ki (Y5.38F 5-HT1D receptor) | Ki (Y5.38A 5-HT1A receptor) | Emax (human 5-HT1D receptor; read-out: 5-HT1D EMAX (%)) | EC50 (human 5-HT1D receptor; WT receptor, read-out: 5-HT1D pEC50 (converted)) | EC50 (V3.33I 5-HT1A receptor) | EC50 (N7.39T 5-HT1A receptor) | EC50 (human 5-HT1D receptor; 5-HT1D pEC50, WT receptor) |
| --- | --- | --- | --- | --- | --- | --- | --- | --- | --- | --- | --- | --- | --- | --- | --- |
| CN(C)[C@H]1CCc2c(cccc2-c2ccccc2F)C1 [(S)-FPT] | 1.35 nM | 1.91 nM | 1.29 nM | 1.07 nM | 2.57 nM | 1.48 nM | 103 ± 3% | ~80 fold | 1.29 nM |  |  |  |  |  |  |
| Fc1ccccc1-c1cccc2c1CC[C@H](N1CCCC1)C2 [(S)-PFPT] | 309 nM | 15.1 nM | 41.7 nM | 42.7 nM | 102 nM | 58.9 nM |  |  | 41.7 nM | 0.955 nM | 98 ± 3% | 57.5 nM | 10.5 nM | 25.1 nM |  |
| CN(C)[C@H]1CCc2c(cccc2-c2cccc3ccccc23)C1 [(S)-NAP] | 10 nM | 5.62 nM | 1.17 nM | 70.8 nM | 5.89 nM | 257 nM | 90 ± 3% | ~40 fold | 0.661 nM | 245 nM |  |  | 355 nM | 347 nM | 8.71 nM |
